What is called Kd is a measure of binding affinity in units of concentration. Low readings indicate a tighter complex, high ones a looser complex.

In PMC4319009, “Small Molecules Dorsomorphin and LDN-193189 Inhibit Myostatin/GDF8 Signaling and Promote Functional Myoblast Differentiation” (The Journal of Biological Chemistry, 2014) one finds Kd data, which are given here for 2 compounds.

The target in one assay is T1, ActRIIA (Homo sapiens, UniProt P27037).
T1 construct: gene ACVR2A; kinase domain residues 191-488, N-terminal His6 removed by TEV protease, vector pFB-LIC-Bse, baculovirus Sf9; two molecules per asymmetric unit
T1 sequence (P27037 191-488): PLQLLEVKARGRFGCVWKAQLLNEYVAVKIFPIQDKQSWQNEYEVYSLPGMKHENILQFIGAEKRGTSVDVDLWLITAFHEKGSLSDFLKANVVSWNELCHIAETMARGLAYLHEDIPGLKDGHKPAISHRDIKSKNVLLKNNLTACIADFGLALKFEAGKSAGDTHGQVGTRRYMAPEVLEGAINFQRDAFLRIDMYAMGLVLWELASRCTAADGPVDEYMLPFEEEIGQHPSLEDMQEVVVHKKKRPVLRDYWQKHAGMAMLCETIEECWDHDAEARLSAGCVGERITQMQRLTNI
The assay is described as follows: isothermal titration calorimetry. The assay is classed as binding. The source says:
isothermal titration calorimetry on ActRIIA

In a further assay the target is T2, ActRIIB (Homo sapiens, UniProt Q13705).
T2 construct: gene ACVR2B; kinase domain residues 190-487, N-terminal His6 removed by TEV protease, vector pFB-LIC-Bse, baculovirus Sf9
T2 sequence (Q13705 190-487): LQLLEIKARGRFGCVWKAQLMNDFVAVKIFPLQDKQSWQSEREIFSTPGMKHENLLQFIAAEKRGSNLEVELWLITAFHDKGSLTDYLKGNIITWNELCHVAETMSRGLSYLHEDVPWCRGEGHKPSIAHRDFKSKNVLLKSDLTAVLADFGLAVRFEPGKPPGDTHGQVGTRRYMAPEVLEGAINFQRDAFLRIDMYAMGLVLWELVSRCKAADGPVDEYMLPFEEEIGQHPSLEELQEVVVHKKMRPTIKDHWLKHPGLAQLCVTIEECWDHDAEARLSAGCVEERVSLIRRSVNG
The assay is described as follows: isothermal titration calorimetry. It counts as binding. The source says:
isothermal titration calorimetry on ActRIIB

As for `c1cc(-c2cnn3cc(-c4ccc(OCCN5CCCCC5)cc4)cnc23)ccn1` [Dorsomorphin], the Kd on ActRIIA was 0.058 µM; at ActRIIB, 0.03 µM.

For the compound `c1ccc2c(-c3cnn4cc(-c5ccc(N6CCNCC6)cc5)cnc34)ccnc2c1` [LDN-193189], binding at ActRIIA was characterised by a dissociation constant (Kd) of 0.014 µM.
